Measurements published in ChEMBL document CHEMBL1201862, “PubChem BioAssay data set” (2004).
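Tested at 5 concentrations; 48 h exposure; 96-well plates; endpoints linearly interpolated, else capped at highest concentration. Abbreviation: GI50, concentration required for 50% inhibition of growth.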 Activity calls are given as the source filed them. No stated cut-off is given here; in the data, active = GI50 up to about 1.1 µM and inactive = higher.

Columns and labels:
Experiment in all cases: growth of human tumour cells (NCI), 48 h
SNB-19 = system: SNB-19
HCT-15 = system: HCT-15
SK-MEL-28 = system: SK-MEL-28
SK-MEL-2 = system: SK-MEL-2
OVCAR-5 = system: OVCAR-5
786-0 = system: 786-0
SF-295 = system: SF-295
MDA-N = system: MDA-N
Hs-578T = system: Hs-578T
IGROV-1 = system: IGROV-1
SW-620 = system: SW-620
SK-OV-3 = system: SK-OV-3
SF-539 = system: SF-539
SK-MEL-5 = system: SK-MEL-5
A549 = system: A549
NCI-H522 = system: NCI-H522
KM12 = system: KM12
UO-31 = system: UO-31
NCI-H226 = system: NCI-H226
HL-60 = system: HL-60

| SMILES | GI50 (SNB-19) | GI50 (HCT-15) | GI50 (SK-MEL-28) | GI50 (SK-MEL-2) | GI50 (OVCAR-5) | GI50 (786-0) | GI50 (SF-295) | GI50 (MDA-N) | GI50 (Hs-578T) | GI50 (IGROV-1) | GI50 (SW-620) | GI50 (SK-OV-3) | GI50 (SF-539) | GI50 (SK-MEL-5) | GI50 (A549) | GI50 (NCI-H522) | GI50 (KM12) | GI50 (UO-31) | GI50 (NCI-H226) | GI50 (HL-60) |
| --- | --- | --- | --- | --- | --- | --- | --- | --- | --- | --- | --- | --- | --- | --- | --- | --- | --- | --- | --- | --- |
| CCOC(=O)CC[C@@H](NC(=O)c1ccc(NCc2ccc3nc(OC)c(OC)nc3c2)cc1)C(=O)OCC | > 100 µM (inactive) | > 87.3 µM | 16.1 µM (inactive) | 18.1 µM (inactive) | > 100 µM (inactive) | 59.4 µM (inactive) | 70.8 µM (inactive) | 30.1 µM (inactive) | > 29.9 µM (inactive) | 22.5 µM (inactive) | 80.7 µM (inactive) | > 100 µM (inactive) | 18.5 µM (inactive) | 13.6 µM (inactive) | > 100 µM (inactive) | 19.9 µM (inactive) | > 100 µM (inactive) | 26.5 µM (inactive) | 58.7 µM (inactive) | 14.8 µM (inactive) |
| O=C(O)CCCSc1nc2ccccc2s1 | > 100 µM (inactive) | > 100 µM | > 100 µM (inactive) | > 100 µM (inactive) | > 100 µM (inactive) | > 100 µM (inactive) | > 100 µM (inactive) | > 100 µM (inactive) | > 100 µM (inactive) | > 100 µM (inactive) | > 100 µM (inactive) | > 100 µM (inactive) | > 100 µM (inactive) | > 100 µM (inactive) | > 100 µM (inactive) | > 100 µM (inactive) | > 100 µM (inactive) | > 100 µM (inactive) | > 100 µM (inactive) | > 100 µM (inactive) |
| CC1(C)O[C@@H]2COC(=O)[C@@H]2O1 | > 100 µM (inactive) | > 100 µM | > 100 µM (inactive) | > 100 µM (inactive) | > 100 µM (inactive) | > 100 µM (inactive) | > 100 µM (inactive) | > 100 µM (inactive) | > 100 µM (inactive) | > 100 µM (inactive) | > 100 µM (inactive) | > 100 µM (inactive) | 2.95 µM (inactive) | > 100 µM (inactive) | > 100 µM (inactive) | > 100 µM (inactive) | > 100 µM (inactive) | > 100 µM (inactive) | > 100 µM (inactive) | > 100 µM (inactive) |
| CCCCCC(=O)Nc1[nH]nnc1C(N)=O | > 100 µM (inactive) | > 100 µM | > 100 µM (inactive) | > 100 µM (inactive) | > 100 µM (inactive) | > 100 µM (inactive) | > 100 µM (inactive) | > 100 µM (inactive) | > 100 µM (inactive) | > 100 µM (inactive) | > 100 µM (inactive) | > 100 µM (inactive) | > 100 µM (inactive) | > 100 µM (inactive) | > 100 µM (inactive) | > 100 µM (inactive) | > 100 µM (inactive) | > 100 µM (inactive) | > 100 µM (inactive) | > 100 µM (inactive) |
| COC(=O)C(=O)C(C(=O)C(=O)Nc1ccccc1C(=O)OC)c1nc2ccc(C(=O)c3ccccc3)cc2nc1O (stereo not given) |  | 46.8 µM | 90.2 µM (inactive) | > 100 µM (inactive) | > 100 µM (inactive) | > 100 µM (inactive) | 47.2 µM (inactive) | 28.4 µM (inactive) | 33.2 µM (inactive) | 62.8 µM (inactive) | 50 µM (inactive) | 60.7 µM (inactive) | > 100 µM (inactive) | 53.7 µM (inactive) | > 100 µM (inactive) | 24.1 µM (inactive) | 21.7 µM (inactive) | 31.7 µM (inactive) | > 100 µM (inactive) | 41 µM (inactive) |
| CN(CCCNC(=O)c1cn(C)c2c1ccc1cc(Cl)c(Cl)cc12)CCCNC(=O)c1cn(C)c2c1ccc1cc(Cl)c(Cl)cc12 | 7 µM (inactive) | 11.9 µM | 18.5 µM (inactive) | 16.7 µM (inactive) | 16.4 µM (inactive) | 6.27 µM (inactive) | 17.1 µM (inactive) | 15.9 µM (inactive) | 8.73 µM (inactive) | 7.62 µM (inactive) | 4.19 µM (inactive) | 15.2 µM (inactive) | 15.7 µM (inactive) | 14.7 µM (inactive) | 11 µM (inactive) | 14.6 µM (inactive) | 5.31 µM (inactive) | 16.7 µM (inactive) | 22.1 µM (inactive) | 2.47 µM (inactive) |
| c1cc(CSSCc2ccncc2)ccn1 | 34 µM (inactive) | 19.4 µM | 64 µM (inactive) | 27.9 µM (inactive) | 55.5 µM (inactive) | 10.4 µM (inactive) | 37.6 µM (inactive) | 12.9 µM (inactive) | 29.2 µM (inactive) | 30.5 µM (inactive) | 6.27 µM (inactive) | 23.1 µM (inactive) | 8.02 µM (inactive) | 17.7 µM (inactive) | 27.3 µM (inactive) | 12.9 µM (inactive) | 29.6 µM (inactive) | 8.99 µM (inactive) | 30.6 µM (inactive) | 13.7 µM (inactive) |
| CCN(CC)CCOC(c1cc(OC)ccc1OC)c1ccc2n1-c1ccccc1OC2 (stereo not given) | 15.7 µM (inactive) | 11.5 µM | 15 µM (inactive) | 13.1 µM (inactive) | 15.8 µM (inactive) | 15.6 µM (inactive) | 10.4 µM (inactive) | 13.6 µM (inactive) | 13.7 µM (inactive) | 7 µM (inactive) | 8.85 µM (inactive) |  |  | 10.4 µM (inactive) | 14 µM (inactive) | 15.2 µM (inactive) | 16.5 µM (inactive) | 11 µM (inactive) | 3.98 µM (inactive) | 13.2 µM (inactive) |
| O=c1cnc2cc3ccccc3cc2[nH]1 | 71.6 µM (inactive) | > 100 µM | > 100 µM (inactive) | > 100 µM (inactive) | > 100 µM (inactive) | > 100 µM (inactive) | > 100 µM (inactive) | > 100 µM (inactive) | > 100 µM (inactive) | > 100 µM (inactive) | > 100 µM (inactive) | > 100 µM (inactive) |  | > 100 µM (inactive) | > 100 µM (inactive) | > 100 µM (inactive) | > 100 µM (inactive) | 46.9 µM (inactive) | > 100 µM (inactive) | > 100 µM (inactive) |
| O=C1CS(=O)(=O)C(c2cccc(Oc3ccccc3)c2)N1c1cc(Cl)ccc1Cl (stereo not given) | 22.4 µM (inactive) | 24.9 µM | 26.5 µM (inactive) | 14.4 µM (inactive) | 29.6 µM (inactive) | 19.2 µM (inactive) | 22.9 µM (inactive) | 16.7 µM (inactive) | 33.3 µM (inactive) |  | 34.4 µM (inactive) | 24 µM (inactive) | 21 µM (inactive) | 15.8 µM (inactive) | 38.2 µM (inactive) | 23.7 µM (inactive) | 17.8 µM (inactive) | 20.1 µM (inactive) | 19.2 µM (inactive) | 34.2 µM (inactive) |
| O=C(c1ccc(O)c([N+](=O)[O-])c1)c1ccc(O)c([N+](=O)[O-])c1 | > 100 µM (inactive) | > 100 µM | 47.2 µM (inactive) | > 100 µM (inactive) | > 100 µM (inactive) | > 100 µM (inactive) | 46.3 µM (inactive) | 53.7 µM (inactive) | 46.3 µM (inactive) | > 100 µM (inactive) | 55.6 µM (inactive) | > 100 µM (inactive) | 53.5 µM (inactive) | > 100 µM (inactive) | 89.9 µM (inactive) | > 100 µM (inactive) | 35.2 µM (inactive) | 66.2 µM (inactive) | > 100 µM (inactive) |  |
| CN(C)CCNc1ccc2ncnc3c2c1C(=O)c1ccccc1-3 | 1.02 µM (active) | 0.323 µM | 2.33 µM (inactive) | 1.76 µM (inactive) | 0.488 µM (active) | 0.215 µM (active) | 0.174 µM (active) | 0.456 µM (active) | 0.989 µM (active) |  | 0.129 µM (active) | 1.81 µM (inactive) | 0.667 µM (active) | 0.759 µM (active) | 0.274 µM (active) | 0.232 µM (active) | 0.393 µM (active) | 0.468 µM (active) | 0.431 µM (active) | 2.58 µM (inactive) |
| COc1ccccc1-n1cnc2c1=NC(C)(C)NC=2C(N)=O | > 100 µM (inactive) | > 100 µM | > 100 µM (inactive) | > 100 µM (inactive) | > 100 µM (inactive) | > 100 µM (inactive) | > 100 µM (inactive) | > 100 µM (inactive) | > 100 µM (inactive) | > 100 µM (inactive) | > 100 µM (inactive) | > 100 µM (inactive) | > 100 µM (inactive) | > 100 µM (inactive) | > 100 µM (inactive) | > 100 µM (inactive) | > 100 µM (inactive) |  | > 100 µM (inactive) | > 100 µM (inactive) |
| C=C(Cl)C(=C)CCC(Cl)C(C)(C)Cl (stereo not given) | > 100 µM (inactive) |  | > 100 µM (inactive) | > 100 µM (inactive) | > 100 µM (inactive) | > 100 µM (inactive) | > 100 µM (inactive) | > 100 µM (inactive) | > 100 µM (inactive) | > 100 µM (inactive) | > 100 µM (inactive) | > 100 µM (inactive) | > 100 µM (inactive) | > 100 µM (inactive) | > 100 µM (inactive) | > 100 µM (inactive) | > 100 µM (inactive) | > 100 µM (inactive) | > 100 µM (inactive) | > 100 µM (inactive) |
| COCOCC1CCCN1CN1CCC[C@H]1COCOC (stereo not given in full) | > 100 µM (inactive) | 38.3 µM | > 100 µM (inactive) | > 100 µM (inactive) | > 100 µM (inactive) | 26.5 µM (inactive) | > 100 µM (inactive) | > 100 µM (inactive) | > 100 µM (inactive) | > 100 µM (inactive) | 33.2 µM (inactive) | > 100 µM (inactive) |  | > 100 µM (inactive) | > 100 µM (inactive) | > 100 µM (inactive) | > 100 µM (inactive) | > 100 µM (inactive) | > 100 µM (inactive) | 17.6 µM (inactive) |
